Experimental findings from patent US20220242846A1, “ISOINDOLINONE COMPOUNDS” (Monte Rosa Therapeutics AG, priority 2019, published 2022) are described below.

Read-outs that look alike come from different tables or passages of the source.

Common to all, as to type: cell-based
Experiment [1] relates to Human mammary epithelial cells (HMEC) engineered to express c-myc tagged with EGFP. The experiment in a line: 3D spheroid assay, myc-HMEC (CellTiterGlo3D viability).
Experiment [2] has as its system Human mammary epithelial cells (HMEC) engineered to express EGFP alone (non myc). Nature of the experiment: 3D spheroid assay, non myc-HMEC (CellTiterGlo3D viability). Conditions: 120 h, 3D spheroids, 5 days with compound, read-out: Code: EC50 value in the non myc-HMEC assay.
Another experiment addresses GSPT1 (Homo sapiens, UniProt P15170+Q96SW2). Nature of the experiment: Immunofluorescence assay for GSPT1 degradation in CAL-51 cells. Details: CAL-51 cells were purchased from DSMZ (cat. Number ACC302); endogenous in cells; host or cells: CAL-51 (DSMZ ACC302). To be noted: compound treatment 6 hours. The procedure, abridged: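 CAL-51 cells on fibronectin-coated plates treated 6 h with compound (30 μM to 0.1 nM); fixed, stained with anti-GSPT1/Alexa-488, phalloidin and DAPI, imaged by high-content microscopy. Mean GSPT1 intensity per cell normalized to controls; DC50 by non-linear regression.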

[3] abbreviates: read-out: Code: activity for GSPT1 degradation (DC50).

GSPT1, sequence (P15170 whole entry): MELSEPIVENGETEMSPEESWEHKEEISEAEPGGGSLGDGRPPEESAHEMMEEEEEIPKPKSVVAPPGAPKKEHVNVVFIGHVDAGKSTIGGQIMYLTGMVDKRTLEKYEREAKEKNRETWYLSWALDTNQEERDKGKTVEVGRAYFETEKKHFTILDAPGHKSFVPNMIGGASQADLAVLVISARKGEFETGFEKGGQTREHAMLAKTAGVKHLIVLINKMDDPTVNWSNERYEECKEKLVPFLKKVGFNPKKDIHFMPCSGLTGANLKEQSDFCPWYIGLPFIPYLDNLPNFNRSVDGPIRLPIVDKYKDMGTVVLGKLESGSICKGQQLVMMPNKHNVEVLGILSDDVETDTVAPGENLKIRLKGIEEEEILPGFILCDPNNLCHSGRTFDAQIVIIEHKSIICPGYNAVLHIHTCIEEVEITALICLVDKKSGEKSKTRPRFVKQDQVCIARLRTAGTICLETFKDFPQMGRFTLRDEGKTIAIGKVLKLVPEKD
GSPT1, sequence (Q96SW2 whole entry): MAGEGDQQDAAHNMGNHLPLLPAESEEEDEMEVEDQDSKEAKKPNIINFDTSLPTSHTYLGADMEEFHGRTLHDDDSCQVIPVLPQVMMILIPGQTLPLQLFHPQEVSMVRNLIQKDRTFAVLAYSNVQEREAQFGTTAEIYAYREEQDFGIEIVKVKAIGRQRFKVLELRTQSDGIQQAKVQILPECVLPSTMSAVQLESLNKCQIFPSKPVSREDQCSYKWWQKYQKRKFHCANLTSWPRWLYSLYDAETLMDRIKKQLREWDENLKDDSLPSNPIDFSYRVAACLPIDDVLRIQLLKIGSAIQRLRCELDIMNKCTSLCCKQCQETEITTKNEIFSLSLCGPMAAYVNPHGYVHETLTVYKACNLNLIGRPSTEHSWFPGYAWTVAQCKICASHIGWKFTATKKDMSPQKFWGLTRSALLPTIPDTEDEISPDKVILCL
GSPT1, sequence (Q16531 2-1140 partner limits assumed): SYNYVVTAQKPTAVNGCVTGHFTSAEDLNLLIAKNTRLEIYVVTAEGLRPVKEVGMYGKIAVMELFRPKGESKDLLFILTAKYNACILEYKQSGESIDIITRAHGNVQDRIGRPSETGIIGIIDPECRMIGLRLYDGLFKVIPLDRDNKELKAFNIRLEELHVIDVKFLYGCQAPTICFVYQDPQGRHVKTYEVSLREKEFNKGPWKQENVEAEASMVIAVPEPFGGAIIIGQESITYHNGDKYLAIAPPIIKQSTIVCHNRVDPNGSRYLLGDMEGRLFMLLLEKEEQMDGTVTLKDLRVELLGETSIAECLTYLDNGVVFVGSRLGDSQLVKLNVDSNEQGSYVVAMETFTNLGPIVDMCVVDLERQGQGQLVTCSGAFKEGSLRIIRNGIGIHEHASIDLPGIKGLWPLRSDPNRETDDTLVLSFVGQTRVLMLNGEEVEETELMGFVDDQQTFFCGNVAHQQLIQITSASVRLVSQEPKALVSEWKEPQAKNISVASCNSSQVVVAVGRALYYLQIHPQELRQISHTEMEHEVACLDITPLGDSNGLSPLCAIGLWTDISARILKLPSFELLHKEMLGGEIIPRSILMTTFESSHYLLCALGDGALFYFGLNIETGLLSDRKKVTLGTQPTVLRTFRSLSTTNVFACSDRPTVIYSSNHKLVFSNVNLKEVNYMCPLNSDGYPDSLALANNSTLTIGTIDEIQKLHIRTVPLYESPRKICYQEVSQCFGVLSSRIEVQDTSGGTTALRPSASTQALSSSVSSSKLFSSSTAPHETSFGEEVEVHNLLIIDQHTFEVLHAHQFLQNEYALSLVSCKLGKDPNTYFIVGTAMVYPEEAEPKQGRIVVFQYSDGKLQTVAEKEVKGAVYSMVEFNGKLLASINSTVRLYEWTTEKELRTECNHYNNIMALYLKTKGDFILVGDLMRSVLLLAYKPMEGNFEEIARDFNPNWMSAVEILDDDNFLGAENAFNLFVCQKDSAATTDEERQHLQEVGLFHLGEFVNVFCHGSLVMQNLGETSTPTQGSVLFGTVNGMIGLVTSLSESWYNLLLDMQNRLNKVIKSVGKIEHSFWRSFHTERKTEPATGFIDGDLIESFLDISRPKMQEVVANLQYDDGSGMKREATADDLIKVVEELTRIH

For the compound `Cc1ccc(NC(=O)NCc2ccc3c(c2)C(=O)N(C2CCC(=O)NC2=O)C3)cc1Cl` (centres unmarked) [Compound 8], the 50% effective concentration (EC50) in experiment [1] (Homo sapiens, HMEC, 120 h, 3D spheroids, 5 days with compound, read-out: Code: EC50 value in the myc-HMEC assay) is not above 400 nM; in experiment [1] (myc-HMEC 3D spheroids (compounds with code D and E), 5 days, read-out: EC50), 220 nM; in experiment [2], more than 10000 nM.

On to `Cc1c(Cl)cc(NC(=O)NCc2ccc3c(c2)C(=O)N(C2CCC(=O)NC2=O)C3)cc1CC1COCOC1` (centres unmarked) [Compound 132], for which the 50% degradation concentration (DC50) on GSPT1 (setting [3]) was not above 100 nM.

In the case of `Cc1c(Cl)cc(NC(=O)NCc2ccc3c(c2)C(=O)N(C2CCC(=O)NC2=O)C3)cc1CN(C)C` (centres unmarked) [Compound 75], at GSPT1 (setting [3]), the DC50 was 100 to 300 nM. Besides, the EC50 in experiment [2] is more than 10000 nM.

For the compound `Cc1c(Cl)cc(NC(=O)NCc2ccc3c(c2)C(=O)N(C2CCC(=O)NC2=O)C3)cc1CN1CCOCC1` (centres unmarked) [Compound 82], the DC50 at GSPT1 (setting [3]) is not above 100 nM.

As for `O=C1CCC(N2Cc3ccc(CNC(=O)Nc4cccc(CN5CCOCC5)c4)cc3C2=O)C(=O)N1` (centres unmarked) [Compound 105], at GSPT1 (setting [3]), the half-maximal degradation concentration (DC50) is more than 300 nM.

With `Cc1ccc(NC(=O)NCc2ccc3c(c2)C(=O)N(C2CCC(=O)NC2=O)C3)c(Cl)c1Cl` (centres unmarked) [Compound 87], the DC50 on GSPT1 (setting [3]) was more than 300 nM.

In the case of `Cc1cc(C)c(NC(=O)NCc2ccc3c(c2)C(=O)N(C2CCC(=O)NC2=O)C3)cc1Cl` (centres unmarked) [Compound 85], the DC50 at GSPT1 (GSPT1 degradation, read-out: DC50) is 274 nM; on GSPT1 (setting [3]) it was 100 to 300 nM.
